This is an account of results in ChEMBL document CHEMBL3797052 (Eur J Med Chem, 2016).

Each structure is given as a SMILES string.

Common to all, as to format: functional
One test concerns NCI-H226. The test can be described thus: Antiproliferative activity against human NCI-H226 cells assessed as cell growth at 10^-5 M after 48 hrs by sulforhodamine B assay. As to conditions: NCI-H226, 48 h, read-out: Activity.
Test [1] in a line: Antiproliferative activity against human UO31 cells assessed as cell growth at 10^-5 M after 48 hrs by sulforhodamine B assay. The conditions noted are these: UO-31, 48 h, read-out: Activity.
A further test concerns EKVX. The test can be described thus: Antiproliferative activity against human EKVX cells assessed as cell growth at 10^-5 M after 48 hrs by sulforhodamine B assay. The conditions noted are these: read-out: Activity.
Another test deals with HT-29. The test can be described thus: Antiproliferative activity against human HT-29 cells assessed as cell growth at 10^-5 M after 48 hrs by sulforhodamine B assay. As to conditions: HT-29, 48 h, read-out: Activity.
The test system of a further test is Malme-3M. The test can be described thus: Antiproliferative activity against human MALME-3M cells assessed as cell growth at 10^-5 M after 48 hrs by sulforhodamine B assay. As to conditions: read-out: Activity.
Test [2] in a line: Antiproliferative activity against human BT549 cells assessed as cell growth at 10^-5 M after 48 hrs by sulforhodamine B assay. As to conditions: BT-549, 48 h, read-out: Activity.
A further test deals with M14. The test can be described thus: Antiproliferative activity against human M14 cells assessed as cell growth at 10^-5 M after 48 hrs by sulforhodamine B assay. As to conditions: M14, 48 h, read-out: Activity.
The next test deals with MDA-MB-468. The test can be described thus: Antiproliferative activity against human MDA-MB-468 cells assessed as cell growth at 10^-5 M after 48 hrs by sulforhodamine B assay. As to conditions: MDA-MB-468, 48 h, read-out: Activity.
Test [3] in a line: Antiproliferative activity against human SF268 cells assessed as cell growth at 10^-5 M after 48 hrs by sulforhodamine B assay. The conditions noted are these: SF-268, 48 h, read-out: Activity.
For another test, the system named is 786-0. Description: Antiproliferative activity against human 786-0 cells assessed as cell growth at 10^-5 M after 48 hrs by sulforhodamine B assay. As to conditions: 786-0, 48 h, read-out: Activity.
Test [4] in a line: Antiproliferative activity against human RPMI8226 cells assessed as cell growth at 10^-5 M after 48 hrs by sulforhodamine B assay. As to conditions: RPMI-8226, 48 h, read-out: Activity.
Test [5] in a line: Antiproliferative activity against human SF539 cells assessed as cell growth at 10^-5 M after 48 hrs by sulforhodamine B assay. The conditions noted are these: SF-539, 48 h, read-out: Activity.
A further test concerns KM12. The test can be described thus: Antiproliferative activity against human KM12 cells assessed as cell growth at 10^-5 M after 48 hrs by sulforhodamine B assay. As to conditions: KM12, 48 h, read-out: Activity.
Test [6] can be described thus: Antiproliferative activity against human MOLT4 cells assessed as cell growth at 10^-5 M after 48 hrs by sulforhodamine B assay. As to conditions: MOLT-4, 48 h, read-out: Activity.
Another test deals with A498. The test can be described thus: Antiproliferative activity against human A498 cells assessed as cell growth at 10^-5 M after 48 hrs by sulforhodamine B assay. The conditions noted are these: A498, 48 h, read-out: Activity.
Test [7] in a line: Antiproliferative activity against human LOXIMVI cells assessed as cell growth at 10^-5 M after 48 hrs by sulforhodamine B assay. As to conditions: LOX IMVI, read-out: Activity.
A short description of test [8]: Antiproliferative activity against human HOP62 cells assessed as cell growth at 10^-5 M after 48 hrs by sulforhodamine B assay. The conditions noted are these: HOP-62, 48 h, read-out: Activity.
A further test concerns MDA-MB-231. Description: Antiproliferative activity against human MDA-MB-231 cells assessed as cell growth at 10^-5 M after 48 hrs by sulforhodamine B assay. As to conditions: MDA-MB-231, 48 h, read-out: Activity.
The test system of another test is A549. The test can be described thus: Antiproliferative activity against human A549/ATCC cells assessed as cell growth at 10^-5 M after 48 hrs by sulforhodamine B assay. The conditions noted are these: A549, 48 h, read-out: Activity.
Test [9] can be described thus: Antiproliferative activity against human OVCAR4 cells assessed as cell growth at 10^-5 M after 48 hrs by sulforhodamine B assay. As to conditions: OVCAR-4, 48 h, read-out: Activity.
The nature of test [10]: Antiproliferative activity against human HCT116 cells assessed as cell growth at 10^-5 M after 48 hrs by sulforhodamine B assay. The conditions noted are these: HCT-116, 48 h, read-out: Activity.
A short description of test [11]: Antiproliferative activity against human RXF393 cells assessed as cell growth at 10^-5 M after 48 hrs by sulforhodamine B assay. The conditions noted are these: RXF 393, 48 h, read-out: Activity.
Another test deals with ACHN. The test can be described thus: Antiproliferative activity against human ACHN cells assessed as cell growth at 10^-5 M after 48 hrs by sulforhodamine B assay. As to conditions: read-out: Activity.
The next test relates to NCI-H23. The test can be described thus: Antiproliferative activity against human NCI-H23 cells assessed as cell growth at 10^-5 M after 48 hrs by sulforhodamine B assay. The conditions noted are these: NCI-H23, 48 h, read-out: Activity.
In a further test the test system is MDA-MB-435. Description: Antiproliferative activity against human MDA-MB-435 cells assessed as cell growth at 10^-5 M after 48 hrs by sulforhodamine B assay. The conditions noted are these: MDA-MB-435, 48 h, read-out: Activity.
A short description of test [12]: Antiproliferative activity against human UACC257 cells assessed as cell growth at 10^-5 M after 48 hrs by sulforhodamine B assay. As to conditions: UACC-257, 48 h, read-out: Activity.
Test [13] in a line: Antiproliferative activity against human UACC62 cells assessed as cell growth at 10^-5 M after 48 hrs by sulforhodamine B assay. As to conditions: UACC-62, 48 h, read-out: Activity.
Test [14] can be described thus: Antiproliferative activity against human Caki1 cells assessed as growth inhibition after 48 hrs by sulforhodamine B assay. As to conditions: CAKI-1, 48 h.
A short description of test [15]: Antiproliferative activity against human SNB19 cells assessed as growth inhibition after 48 hrs by sulforhodamine B assay. The conditions noted are these: SNB-19, 48 h.

For `CNC(=O)c1cc(Oc2ccc3nc(NC(=O)Nc4ccc(Cl)cc4)sc3c2)ccn1`, the growth at 10 µM in the test with NCI-H226 is 67.9%; in test [1], 62.5%; in the test with EKVX it was 53.8%; in the test on HT-29, 68.8%; in the test on Malme-3M, 17.7%; in test [2] it was 102%. The growth at 10 µM came to 63% in the test with M14; 55.1% in the test on MDA-MB-468; 56.2% in [3]; 75.3% in the test with 786-0; 81.7% in test [4]; 83.5% in [5]. The growth at 10 µM in the test with KM12 was 70%; in [6], 85.4%; in the test on A498, 117%; in test [7] it was 51.6%; in test [8], 6.54%; in the test on MDA-MB-231, 34.4%. The growth at 10 µM in the test on A549 is 44.1%; in [9], 13%; in test [10], 47.3%; in [11], 50.8%; with ACHN it was 64.9%; in the test on NCI-H23, 69%. For the same compound, the growth at 10 µM in the test on MDA-MB-435 was 64.1%.

`CNC(=O)c1cc(Oc2ccc3nc(NC(=O)c4ccc5ncccc5c4)sc3c2)ccn1`: the growth at 10 µM in the test with NCI-H226 was found to be 68.6%; in test [1], 77%; with EKVX it was 87.5%; with HT-29, 69.9%; in the test on Malme-3M it was 80.5%; in test [2] it was 82.3%. Besides, the growth at 10 µM in the test on M14 stood at 102%; in the test on MDA-MB-468, 73.7%; in test [3], 97.5%; in the test with 786-0, 98.4%; in test [4], 71.9%; in test [5] it was 107%. Besides, the growth at 10 µM in the test with KM12 was determined as 101%; in test [6] it was 94.2%; in the test with A498, 88.3%; in test [7], 99.6%; in test [8], 112%; in the test on MDA-MB-231, 98.6%. Also, the growth at 10 µM in [12] was 93.1%; in the test on A549 it was 76.5%; in [9], 87.4%; in test [10] it was 103%; in test [11] it was 109%; in test [13], 94.9%. The growth at 10 µM worked out at 102% in the test with ACHN, 92.7% in the test with NCI-H23 and 91.6% with MDA-MB-435.

Regarding `CNC(=O)c1cc(Oc2ccc3nc(NC(=O)c4ccc5c(c4)OCCO5)sc3c2)ccn1`, the growth at 10 µM was 99.6% in the test on NCI-H226; 94.7% in test [1]; 99% in the test on EKVX; 71.3% with HT-29; 92.5% in the test on Malme-3M; 89.8% in test [2]. In addition, the growth at 10 µM with M14 amounted to 100%; with MDA-MB-468 it was 108%; in test [3], 96.6%; with 786-0, 97.3%; in test [4], 97.7%; in test [5], 100%. Besides, the growth at 10 µM in the test with KM12 was found to be 95.3%; in test [6] it was 94.7%; in the test on A498, 95.1%; in test [7] it was 97.8%; in [8] it was 104%; in the test on MDA-MB-231, 101%. In addition, the growth at 10 µM was 95% in test [12]; 98.8% with A549; 97.5% in test [9]; 89.6% in test [10]; 102% in [11]; 102% in test [13]. Further, the growth at 10 µM with ACHN stood at 106%; with NCI-H23 it was 90%; in the test with MDA-MB-435, 98.5%.

With `CNC(=O)c1cc(Oc2ccc3nc(NC(=O)c4cccc(F)n4)sc3c2)ccn1`, the growth at 10 µM in the test on NCI-H226 amounted to 76.3%; in test [1], 67.1%; in the test on EKVX, 90%; in the test with HT-29 it was 96%; in the test with Malme-3M, 98.2%; in [2] it was 74.6%. In addition, the growth at 10 µM in the test with M14 came out at 91.8%; in the test with MDA-MB-468, 71.3%; in [3], 89.6%; in the test with 786-0, 86%; in [4] it was 70.4%; in test [5], 96.6%. Besides, the growth at 10 µM came to 87.5% with KM12; 80.8% in [6]; 72.6% with A498; 84.8% in test [7]; 90% in test [8]; 86% in the test on MDA-MB-231. The growth at 10 µM in test [12] was 80.3%; with A549 it was 75.2%; in [9], 76%; in test [10], 80.5%; in [11], 101%; in test [13], 78%. Besides, the growth at 10 µM turned out to be 94.5% in the test on ACHN, 83% with NCI-H23 and 100% in the test with MDA-MB-435.

For `CNC(=O)c1cc(Oc2ccc(NC(=O)Nc3ccc(Cl)c(C(F)(F)F)c3)cc2)ccn1` [SORAFENIB], in test [14], the GI50 turned out to be 3.16 µM and the TGI came to 3.98 µM. Moreover, the CC50 in test [14] (read-out: LC50 (the source's name)) came out at 10 µM. For the same compound, in test [15], the GI50 was 3.16 µM and the TGI was 15.8 µM.

Regarding `CNC(=O)c1cc(Oc2ccc3nc(NC(=O)c4ccc(Cl)c(C(F)(F)F)c4)sc3c2)ccn1`, the growth at 10 µM in the test with NCI-H226 came to 93.4%; in test [1], 80.4%; in the test with EKVX, 78.8%; in the test on HT-29, 68.1%; in the test on Malme-3M it was 57%; in test [2], 80.6%. In addition, the growth at 10 µM in the test with M14 was 89.9%; in the test on MDA-MB-468, 48.5%; in [3], 85.3%; in test [4], 64.8%; in test [5], 69.9%; in the test with KM12, 67.7%. Also, the growth at 10 µM came to 67.3% in test [6]; 69% in the test on A498; 71.2% in test [7]; 83.7% in test [8]; 75.3% with MDA-MB-231; 75.3% in [12]. Besides, the growth at 10 µM with A549 worked out at 71.7%; in [9] it was 36.7%; in test [10] it was 61.9%; in test [11], 47.9%; in test [13] it was 81.1%; with ACHN, 60.6%. Further, the figures for the growth at 10 µM in the test with NCI-H23 and in the test with MDA-MB-435 were 69.1% and 80.4%, respectively.
